Patent publication US12427210B2, “Compounds comprising a fibroblast activation protein ligand and use thereof” (priority 2019, dated 2025)
Read-outs that look alike come from different tables or passages of the source. Numbered stars: 1 amine (or outer) side, 2 acyl side, 3 side chain; on linkers, the order of the positions; unused ones are H or OH. Bridge positions count the residues as written; N and C are the ends. Peptide text beside a SMILES is read from it. * marks the point of attachment. X1 = O=C(O)CN1CCN(CC(=O)O)CCN(CC(=O)N2CCN(Cc3cc(C[*:1])cc(C[*:2])c3)CC2)CCN(CC(=O)O)CC1; Hexanoyl = CCCCCC(=O)*

Tests used:
D1 (h) = D1 (h) (Homo sapiens, UniProt P21728); experiment: biochemical; details: read-out: % Inhibition of Specific Binding
Sequence of D1 (h) (P21728 whole entry): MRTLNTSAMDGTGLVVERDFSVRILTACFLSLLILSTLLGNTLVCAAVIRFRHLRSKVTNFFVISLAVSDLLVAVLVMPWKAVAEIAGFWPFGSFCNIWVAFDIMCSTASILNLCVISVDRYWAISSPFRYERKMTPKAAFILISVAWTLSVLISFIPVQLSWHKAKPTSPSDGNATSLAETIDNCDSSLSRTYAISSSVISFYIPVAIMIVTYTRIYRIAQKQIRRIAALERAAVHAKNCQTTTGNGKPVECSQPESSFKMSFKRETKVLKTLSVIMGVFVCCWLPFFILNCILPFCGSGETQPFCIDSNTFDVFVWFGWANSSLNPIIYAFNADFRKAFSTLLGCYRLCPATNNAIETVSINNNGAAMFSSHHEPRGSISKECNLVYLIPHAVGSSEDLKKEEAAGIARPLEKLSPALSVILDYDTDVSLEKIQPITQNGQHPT

Matrix metalloprotease 2 = biological target: T1, Matrix metalloprotease 2 (Homo sapiens, UniProt P08253); experiment: biochemical; details: read-out: Percentage inhibition (%)
T1 sequence (P08253 110-660): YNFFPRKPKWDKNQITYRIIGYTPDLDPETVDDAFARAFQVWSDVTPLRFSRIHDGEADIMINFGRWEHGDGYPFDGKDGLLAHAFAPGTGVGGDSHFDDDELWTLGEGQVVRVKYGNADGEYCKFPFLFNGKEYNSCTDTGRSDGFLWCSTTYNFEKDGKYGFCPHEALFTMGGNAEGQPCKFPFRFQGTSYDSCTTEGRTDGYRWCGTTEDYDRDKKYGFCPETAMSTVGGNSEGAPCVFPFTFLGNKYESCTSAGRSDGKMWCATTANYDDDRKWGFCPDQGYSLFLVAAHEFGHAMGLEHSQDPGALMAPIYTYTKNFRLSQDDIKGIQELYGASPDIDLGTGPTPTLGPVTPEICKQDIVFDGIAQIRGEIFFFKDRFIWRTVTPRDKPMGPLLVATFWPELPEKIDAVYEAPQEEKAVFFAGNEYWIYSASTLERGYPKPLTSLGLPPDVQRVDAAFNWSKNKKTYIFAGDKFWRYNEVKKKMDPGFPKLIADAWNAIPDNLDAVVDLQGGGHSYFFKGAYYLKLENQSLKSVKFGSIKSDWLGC

beta 1 (h) = beta 1 (h) (Homo sapiens, UniProt P08588); experiment: biochemical; details: read-out: % Inhibition of Specific Binding
kappa (h) (KOP) = kappa (h) (KOP) (Homo sapiens, UniProt P41145); experiment: biochemical; details: read-out: % Inhibition of Specific Binding
[1] = biological target: T2, Matrix metalloprotease 9 (mutant Q279R) (Homo sapiens, UniProt P14780, Q279R); experiment: biochemical; details: read-out: Percentage inhibition (%)
T2 sequence (P14780 94-707 Q279R): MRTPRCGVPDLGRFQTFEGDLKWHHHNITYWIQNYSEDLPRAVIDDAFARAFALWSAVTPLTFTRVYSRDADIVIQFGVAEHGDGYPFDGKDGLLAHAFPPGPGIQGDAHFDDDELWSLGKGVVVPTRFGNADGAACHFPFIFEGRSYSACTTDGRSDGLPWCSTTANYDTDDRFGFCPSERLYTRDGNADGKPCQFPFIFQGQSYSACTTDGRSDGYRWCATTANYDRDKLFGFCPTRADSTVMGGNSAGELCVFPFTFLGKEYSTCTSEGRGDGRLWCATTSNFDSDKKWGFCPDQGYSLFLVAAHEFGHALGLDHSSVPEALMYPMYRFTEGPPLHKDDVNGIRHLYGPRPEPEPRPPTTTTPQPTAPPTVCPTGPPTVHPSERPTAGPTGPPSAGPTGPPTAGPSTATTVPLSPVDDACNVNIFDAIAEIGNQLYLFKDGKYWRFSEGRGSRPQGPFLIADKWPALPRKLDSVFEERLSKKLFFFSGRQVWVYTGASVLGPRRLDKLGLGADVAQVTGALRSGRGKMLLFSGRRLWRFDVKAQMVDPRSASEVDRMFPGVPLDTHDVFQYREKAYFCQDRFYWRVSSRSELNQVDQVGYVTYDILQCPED

CCK1 (CCKA) (h) = CCK1 (CCKA) (h) (Homo sapiens, UniProt P32238); experiment: biochemical; details: read-out: % Inhibition of Specific Binding
5-HT3 (h) = 5-HT3 (h) (Homo sapiens, UniProt P46098); experiment: biochemical; details: read-out: % Inhibition of Specific Binding
Cathepsin V = Cathepsin V (Homo sapiens, UniProt O60911); experiment: biochemical; details: read-out: Percentage inhibition (%)
Sequence of Cathepsin V (O60911 114-334, species assumed): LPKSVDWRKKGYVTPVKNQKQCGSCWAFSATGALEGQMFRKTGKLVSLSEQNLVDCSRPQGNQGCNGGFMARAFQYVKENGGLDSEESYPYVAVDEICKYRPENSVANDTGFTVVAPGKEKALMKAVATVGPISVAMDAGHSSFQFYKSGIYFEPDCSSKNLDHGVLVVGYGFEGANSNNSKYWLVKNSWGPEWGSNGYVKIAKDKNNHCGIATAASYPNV

[2] = test system: serine protease NS3 (a.a. 3-181) from Hepatitis C virus genotype 1b (mutant R155K)
Cathepsin S = Cathepsin S (Homo sapiens, UniProt P25774); experiment: biochemical; details: read-out: Percentage inhibition (%)
Sequence of Cathepsin S (P25774 115-331): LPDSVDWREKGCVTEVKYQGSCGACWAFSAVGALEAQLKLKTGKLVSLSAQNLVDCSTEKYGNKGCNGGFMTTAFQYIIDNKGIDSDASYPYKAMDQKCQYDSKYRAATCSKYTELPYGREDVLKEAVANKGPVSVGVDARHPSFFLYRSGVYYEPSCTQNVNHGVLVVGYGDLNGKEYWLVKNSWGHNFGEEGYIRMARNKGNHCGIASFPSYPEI

[3] = test system: serine protease NS3 (a.a. 3-181) from Hepatitis C virus genotype 1b
Lck kinase (h) = Lck kinase (h) (Homo sapiens, UniProt P06239); experiment: biochemical; details: read-out: % Inhibition of Specific Binding
Sequence of Lck kinase (h) (P06239 whole entry): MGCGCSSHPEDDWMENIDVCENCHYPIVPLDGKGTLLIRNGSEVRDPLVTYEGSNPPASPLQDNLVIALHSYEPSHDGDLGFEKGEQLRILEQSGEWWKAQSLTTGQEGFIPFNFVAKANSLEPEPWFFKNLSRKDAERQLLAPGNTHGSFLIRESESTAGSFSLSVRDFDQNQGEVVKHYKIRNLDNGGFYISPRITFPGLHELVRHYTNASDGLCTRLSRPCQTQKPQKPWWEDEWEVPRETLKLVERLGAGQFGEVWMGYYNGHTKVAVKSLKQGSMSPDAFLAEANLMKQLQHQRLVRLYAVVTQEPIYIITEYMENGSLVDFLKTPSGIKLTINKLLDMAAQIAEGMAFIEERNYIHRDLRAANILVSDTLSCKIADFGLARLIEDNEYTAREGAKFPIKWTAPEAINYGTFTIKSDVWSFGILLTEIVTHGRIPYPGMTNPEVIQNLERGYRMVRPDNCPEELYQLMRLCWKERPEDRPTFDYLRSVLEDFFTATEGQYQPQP

CB2 (h) = CB2 (h) (Homo sapiens, UniProt P34972); experiment: biochemical; details: read-out: % Inhibition of Specific Binding
[4] = biological target: Ubiquitin carboxyl-terminal hydrolase 7 (Homo sapiens, UniProt Q93009); experiment: biochemical; details: read-out: Percentage inhibition (%)
Sequence of Ubiquitin carboxyl-terminal hydrolase 7 (Q93009 whole entry): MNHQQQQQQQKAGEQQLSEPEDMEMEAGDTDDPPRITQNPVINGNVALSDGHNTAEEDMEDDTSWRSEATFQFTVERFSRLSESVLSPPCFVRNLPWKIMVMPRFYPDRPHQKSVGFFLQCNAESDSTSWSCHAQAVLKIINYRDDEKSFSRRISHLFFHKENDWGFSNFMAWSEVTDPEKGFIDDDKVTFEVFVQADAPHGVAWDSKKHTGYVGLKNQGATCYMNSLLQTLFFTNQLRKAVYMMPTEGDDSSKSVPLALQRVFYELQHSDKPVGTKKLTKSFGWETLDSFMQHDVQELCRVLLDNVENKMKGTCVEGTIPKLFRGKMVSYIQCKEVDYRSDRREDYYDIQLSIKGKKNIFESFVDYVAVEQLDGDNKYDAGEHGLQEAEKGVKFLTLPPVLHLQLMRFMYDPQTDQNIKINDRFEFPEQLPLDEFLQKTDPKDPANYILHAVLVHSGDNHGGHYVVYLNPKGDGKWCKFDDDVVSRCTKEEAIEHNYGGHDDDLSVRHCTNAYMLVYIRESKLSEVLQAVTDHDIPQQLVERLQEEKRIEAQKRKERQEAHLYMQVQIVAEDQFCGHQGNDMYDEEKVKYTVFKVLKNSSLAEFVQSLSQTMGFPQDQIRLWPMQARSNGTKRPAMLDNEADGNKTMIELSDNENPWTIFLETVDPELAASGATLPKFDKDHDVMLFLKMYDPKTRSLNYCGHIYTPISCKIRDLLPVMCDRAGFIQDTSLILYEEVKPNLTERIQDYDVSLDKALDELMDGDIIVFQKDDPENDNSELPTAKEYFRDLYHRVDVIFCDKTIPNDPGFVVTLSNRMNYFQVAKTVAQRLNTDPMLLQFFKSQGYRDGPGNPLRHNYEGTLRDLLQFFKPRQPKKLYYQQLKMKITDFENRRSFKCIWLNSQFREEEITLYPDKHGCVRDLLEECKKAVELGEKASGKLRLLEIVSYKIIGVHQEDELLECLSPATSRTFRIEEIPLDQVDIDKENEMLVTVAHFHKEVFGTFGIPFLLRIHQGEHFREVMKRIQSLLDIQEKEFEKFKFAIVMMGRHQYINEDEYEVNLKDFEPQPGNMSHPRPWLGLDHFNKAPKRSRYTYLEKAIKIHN

Cathepsin L = Cathepsin L (Homo sapiens, UniProt P07711); experiment: biochemical; details: read-out: Percentage inhibition (%)
Sequence of Cathepsin L (P07711 114-333, species assumed): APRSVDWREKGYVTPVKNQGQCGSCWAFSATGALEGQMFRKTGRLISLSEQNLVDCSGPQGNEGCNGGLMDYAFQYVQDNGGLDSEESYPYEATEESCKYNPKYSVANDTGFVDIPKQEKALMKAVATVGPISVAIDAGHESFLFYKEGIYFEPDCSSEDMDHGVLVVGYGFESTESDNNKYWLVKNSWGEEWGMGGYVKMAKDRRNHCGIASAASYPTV

Acetylcholinesterase (h) = Acetylcholinesterase (h) (Homo sapiens, UniProt P22303); experiment: biochemical; details: read-out: % Inhibition of Specific Binding
Sequence of Acetylcholinesterase (h) (P22303 32-614): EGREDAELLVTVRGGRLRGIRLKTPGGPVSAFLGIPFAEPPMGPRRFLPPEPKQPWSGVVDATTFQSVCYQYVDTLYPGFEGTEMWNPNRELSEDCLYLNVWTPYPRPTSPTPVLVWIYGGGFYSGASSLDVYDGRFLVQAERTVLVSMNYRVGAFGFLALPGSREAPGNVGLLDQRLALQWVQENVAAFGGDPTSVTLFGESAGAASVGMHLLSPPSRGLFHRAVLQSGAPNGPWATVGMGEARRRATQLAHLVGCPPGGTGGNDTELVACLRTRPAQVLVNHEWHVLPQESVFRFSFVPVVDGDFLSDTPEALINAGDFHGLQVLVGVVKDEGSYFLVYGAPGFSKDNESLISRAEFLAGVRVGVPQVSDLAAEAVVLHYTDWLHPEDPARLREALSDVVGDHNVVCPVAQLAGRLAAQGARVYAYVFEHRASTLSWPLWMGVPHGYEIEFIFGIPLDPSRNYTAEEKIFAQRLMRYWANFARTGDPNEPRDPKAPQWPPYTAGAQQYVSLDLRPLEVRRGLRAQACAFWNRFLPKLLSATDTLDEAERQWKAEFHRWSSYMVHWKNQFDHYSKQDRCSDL

[5] = test system: serine protease NS3 (a.a. 3-181) from Hepatitis C virus genotype 1a (mutant D168V)
ETA (h) = ETA (h) (Homo sapiens, UniProt P25101); experiment: biochemical; details: read-out: % Inhibition of Specific Binding
Na+ channel (site 2) = experiment: SafetyScreen44 Na+ channel (site 2) (antagonist radioligand); assay type: binding; details: 10 μM
GR (h) = GR (h) (Homo sapiens, UniProt P04150); experiment: biochemical; details: read-out: % Inhibition of Specific Binding
Sequence of GR (h) (P04150 whole entry): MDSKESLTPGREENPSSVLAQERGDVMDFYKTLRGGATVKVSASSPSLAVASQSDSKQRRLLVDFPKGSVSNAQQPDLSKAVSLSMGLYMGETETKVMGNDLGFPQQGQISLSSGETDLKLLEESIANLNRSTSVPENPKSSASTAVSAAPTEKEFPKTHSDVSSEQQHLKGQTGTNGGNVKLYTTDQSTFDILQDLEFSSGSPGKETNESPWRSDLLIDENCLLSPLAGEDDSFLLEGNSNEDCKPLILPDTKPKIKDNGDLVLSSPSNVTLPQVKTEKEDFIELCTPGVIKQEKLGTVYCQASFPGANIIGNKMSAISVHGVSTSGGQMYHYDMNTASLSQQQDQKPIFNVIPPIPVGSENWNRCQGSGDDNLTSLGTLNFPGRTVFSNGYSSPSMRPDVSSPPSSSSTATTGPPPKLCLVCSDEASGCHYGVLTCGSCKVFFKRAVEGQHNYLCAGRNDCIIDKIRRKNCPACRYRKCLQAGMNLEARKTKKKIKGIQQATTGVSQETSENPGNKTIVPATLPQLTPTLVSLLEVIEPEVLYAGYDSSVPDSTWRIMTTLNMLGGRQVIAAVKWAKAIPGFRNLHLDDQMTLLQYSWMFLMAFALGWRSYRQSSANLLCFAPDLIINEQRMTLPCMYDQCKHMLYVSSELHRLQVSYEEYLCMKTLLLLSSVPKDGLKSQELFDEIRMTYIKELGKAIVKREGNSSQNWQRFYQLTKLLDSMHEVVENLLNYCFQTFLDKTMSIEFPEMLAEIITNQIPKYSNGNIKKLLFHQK

[6] = test system: serine protease NS3 (a.a. 3-181) from Hepatitis C virus genotype 1b (mutant D168V)
A2A (h) = A2A (h) (Homo sapiens, UniProt P29274); experiment: biochemical; details: read-out: % Inhibition of Specific Binding
Sequence of A2A (h) (P29274 whole entry): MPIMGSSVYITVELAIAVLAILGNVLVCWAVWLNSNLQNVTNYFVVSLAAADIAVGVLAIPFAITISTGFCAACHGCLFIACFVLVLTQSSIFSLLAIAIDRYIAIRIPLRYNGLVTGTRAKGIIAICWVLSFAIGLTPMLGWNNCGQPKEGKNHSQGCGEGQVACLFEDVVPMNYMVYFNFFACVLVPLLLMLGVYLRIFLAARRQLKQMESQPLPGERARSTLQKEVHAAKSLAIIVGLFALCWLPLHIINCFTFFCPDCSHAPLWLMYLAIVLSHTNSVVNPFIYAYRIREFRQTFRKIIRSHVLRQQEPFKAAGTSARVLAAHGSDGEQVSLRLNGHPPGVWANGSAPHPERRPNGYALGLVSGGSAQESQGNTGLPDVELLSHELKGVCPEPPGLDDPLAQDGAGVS

PDE4D2 (h) = PDE4D2 (h) (Homo sapiens, UniProt Q08499); experiment: biochemical; details: read-out: % Inhibition of Specific Binding
Sequence of PDE4D2 (h) (Q08499 303-809): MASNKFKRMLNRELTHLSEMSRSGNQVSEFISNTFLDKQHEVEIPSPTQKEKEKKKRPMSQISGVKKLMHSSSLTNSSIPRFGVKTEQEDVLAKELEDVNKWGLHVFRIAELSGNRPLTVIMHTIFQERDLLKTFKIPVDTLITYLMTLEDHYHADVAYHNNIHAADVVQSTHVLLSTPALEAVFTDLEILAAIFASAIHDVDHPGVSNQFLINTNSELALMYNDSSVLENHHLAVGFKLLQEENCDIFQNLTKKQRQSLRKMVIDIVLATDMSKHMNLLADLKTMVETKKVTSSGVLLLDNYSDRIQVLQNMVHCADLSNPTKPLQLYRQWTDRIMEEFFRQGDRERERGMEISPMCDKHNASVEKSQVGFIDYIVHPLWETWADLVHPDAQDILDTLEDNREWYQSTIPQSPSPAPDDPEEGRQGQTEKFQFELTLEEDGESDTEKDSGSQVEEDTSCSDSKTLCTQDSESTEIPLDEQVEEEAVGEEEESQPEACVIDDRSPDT

Row | Compound | inhibition at 10 µM (D1 (h)) | inhibition at 1 µM (Matrix metalloprotease 2) | inhibition at 10 µM (Matrix metalloprotease 2) | inhibition at 10 µM (beta 1 (h)) | inhibition at 10 µM (kappa (h) (KOP)) | inhibition at 1 µM [1] | inhibition at 10 µM [1] | inhibition at 10 µM (CCK1 (CCKA) (h)) | inhibition at 10 µM (5-HT3 (h)) | inhibition at 1 µM (Cathepsin V) | inhibition at 10 µM (Cathepsin V) | Percentage inhibition (%) ([2]; 1 μM) | Percentage inhibition (%) ([2]; 10 μM) | inhibition at 1 µM (Cathepsin S) | inhibition at 10 µM (Cathepsin S) | Percentage inhibition (%) ([3]; 1 μM) | Percentage inhibition (%) ([3]; 10 μM) | inhibition at 10 µM (Lck kinase (h)) | inhibition at 10 µM (CB2 (h)) | inhibition at 1 µM [4] | also measured
1 | CCCCCC(=O)N[C@H]1CSCc2cc(CSCCNC(=O)CN3CCN(CC(=O)O)CCN(CC(=O)O)CCN(CC(=O)O)CC3)cc(c2)CSC[C@@H](C(=O)O)NC(=O)[C@H](Cc2ccccc2)NC(=O)[C@H](CCC(N)=O)NC(=O)[C@H]([C@@H](C)O)NC(=O)[C@@H]2CCCN2C(=O)[C@@H]2CCCN2C1=O [Compound 3BP-3554, Hex-[Cys(tMeBn(DOTA-AET))-Pro-Pro-Thr-Gln-Phe-Cys]-OH] | 7% | -1% | -2% | -13% | 10% | 3% | 2% | 16% | 4% | -1% | -1% | −1% | 0% | -10% | -23% | −5% | −9% | -4% | -5% | 1% | inhibition at 10 µM [4]: 1%; inhibition at 1 µM (Cathepsin L): 0%; inhibition at 10 µM (Cathepsin L): -6%; inhibition at 10 µM (Acetylcholinesterase (h)): 1%; Percentage inhibition (%) ([5]; 1 μM): −39%; Percentage inhibition (%) ([5]; 10 μM): −372%; inhibition at 10 µM (ETA (h)): 6%; % Inhibition of Specific Binding (Na+ channel (site 2)): 14%; inhibition at 10 µM (GR (h)): 0%; Percentage inhibition (%) ([6]; 1 μM): −2%; Percentage inhibition (%) ([6]; 10 μM): −17%; inhibition at 10 µM (A2A (h)): -16%; inhibition at 10 µM (PDE4D2 (h)): -4%
2 | CCCCCC(=O)N[C@H]1CSCc2cc(cc(CN3CCN(C(=O)CN4CCN(CC(=O)O)CCN(CC(=O)O)CCN(CC(=O)O)CC4)CC3)c2)CSC[C@@H](C(=O)N[C@@H](CC(=O)O)C(N)=O)NC(=O)[C@H](Cc2ccccc2)NC(=O)[C@H](CCC(N)=O)NC(=O)[C@H]([C@@H](C)O)NC(=O)[C@@H]2CCCN2C(=O)[C@@H]2CCCN2C1=O [Compound 3BP-3407, Hex-[Cys(tMeBn(DOTA-PP))-Pro-Pro-Thr-Gln-Phe-Cys]-Asp-NH2] (Hexanoyl-CPPTQFCD-NH2; linker 1-7 via X1) | 0% | 3% | 3% | 4% | 7% | 3% | 2% | 24% | 2% | 1% | -18% | −2% | 5% | 3% | 18% | 1% | 5% | 10% | 2% | 5% | inhibition at 10 µM [4]: 5%; inhibition at 1 µM (Cathepsin L): 3%; inhibition at 10 µM (Cathepsin L): 6%; inhibition at 10 µM (Acetylcholinesterase (h)): -6%; Percentage inhibition (%) ([5]; 1 μM): 1%; Percentage inhibition (%) ([5]; 10 μM): −68%; inhibition at 10 µM (ETA (h)): -18%; % Inhibition of Specific Binding (Na+ channel (site 2)): −7%; inhibition at 10 µM (GR (h)): -2%; Percentage inhibition (%) ([6]; 1 μM): 1%; Percentage inhibition (%) ([6]; 10 μM): −6%; inhibition at 10 µM (A2A (h)): -4%; inhibition at 10 µM (PDE4D2 (h)): -5%
